Measured values: a melting point compilation (Tetko et al.)
Starred links: 1 amine or outer side, 2 acyl side, 3 side chain; linkers in the order of their positions; H or OH if unused. Positions of bridges follow the written chain, without caps; N, C: chain ends. Non-standard residues stand in square brackets, D forms with d. Residues, ends and D or L forms follow the SMILES beside them. *: point of attachment. X6 = CCC(C)C(N[*:1])C(O)CC(=O)OC(C(=O)C(C)C(=O)[*:2])C(C)C; Cyclohexanecarbonyl = O=C(C1CCCCC1)*; NMeY = CN[CH](Cc1ccc(O)cc1)C(=O)O; NMeL = CN[CH](CC(C)C)C(=O)O; Bn = c1ccc(C*)cc1

SMILES | melting point [°C]
Cc1ccc(-c2c(-c3ccc(S(N)(=O)=O)cc3)[nH]c3ccccc23)cc1C | 251 to 253
O=C(NCCCCCCCCCCCCNC(=O)C(O)C(O)C(O)C(O)COC1OC(CO)C(O)C(O)C1O)C(O)C(O)C(O)C(O)COC1OC(CO)C(O)C(O)C1O (configuration not stated) | 114 to 123
COC(=O)C(C)(C)NC(=O)Nc1ccc(Cl)cc1 | 135 to 136
CCC(C)C1NC(=O)C(NC(=O)C(CC(C)C)N(C)C(C)=O)C(C)OC(=O)C(Cc2ccc(OC)cc2)N(C)C(=O)C2CCCN2C(=O)C(CC(C)C)NC(=O)C(C)C(=O)C(C(C)C)OC(=O)CC1O (configuration not stated) (Ac-[NMeL]T[X6]LP[NMeY](Me); ester 2-C; configuration not given here) | 124 to 126
O=S(=O)(CCCCCOc1ccc(C2=C(c3ccc(OC4CCCCO4)cc3)CCCc3cc(OC4CCCCO4)ccc32)cc1)CCCC(F)(F)C(F)(F)F (configuration not stated) | 108 to 110
Cc1ccc(Br)cc1C | -0.2
CCC1(O)CC(OC2CC(N(C)C)C(OC3CC(O)C(OC4CCC(=O)C(C)O4)C(C)O3)C(C)O2)c2c(cc3c(c2O)C(=O)c2c(O)cccc2C3=O)C1C(=O)OC (configuration not stated) | 148
CCc1nc(OC)c(NC(=O)N2CCN(c3cc(C)cc(C)c3)CC2)cc1C(=O)NC(C)C(=O)Nc1cc(CO)cc(Nc2c3ccccc3nc3c(OC)cccc23)c1 (configuration not stated) | 178 to 179
CCCCCCCCCCCC(=O)OC(CCCCCCCCCCC)CC(=O)NC(CCOP(=O)(Oc1ccccc1)Oc1ccccc1)C(=O)OCc1ccccc1 (configuration not stated) | 31 to 32.1
CC(=O)OC(CN1C(=O)C2(CC(C)(C)N(C(C)=O)C(C)(C)C2)OC12CCCCCCCCCCC2)CN1C(=O)C2(CC(C)(C)N(C(C)=O)C(C)(C)C2)OC12CCCCCCCCCCC2 | 122
COc1cc(OC)c(/C=C/C(c2ccc(OC)c(NC(C)C(=O)O)c2)S(=O)(=O)C(/C=C/c2c(OC)cc(OC)cc2OC)c2ccc(OC)c(NC(C)C(=O)O)c2)c(OC)c1 (configuration not stated) | 176 to 180
CCCCc1nn(-c2cc(NC(=O)c3ccccc3)ccc2C(F)(F)F)c(=O)n1Cc1ccc(-c2ccccc2S(=O)(=O)NC(=O)c2ccccc2Cl)cc1F | 210 to 212
O=S(=NCCN1CCOCC1)(c1cccs1)c1cccs1 | 190
CCCCOC(=O)Nc1nc(CN(C)C(=O)N[C@H](C(=O)N[C@@H](Cc2ccccc2)C[C@H](O)[C@H](Cc2ccccc2)NC(=O)[C@@H](NC(=O)N(C)Cc2csc(NC(=O)OCCCC)n2)C(C)C)C(C)C)cs1 | 115 to 120
COC(=O)C(CC(C)C)NC(=O)C(Cc1ccc(OCc2ccccc2)cc1)NC(=O)C(COCc1ccccc1)NC(=O)C(Cc1c[nH]c2ccccc12)NC(=O)C1CCCCC1 (Cyclohexanecarbonyl-WS(Bn)Y(Bn)L-OMe; configuration not given here) | 158 to 160
Cc1ccc(S(=O)(=O)N2CCN(C)CCN(S(=O)(=O)c3ccc(C)cc3)CCN(S(=O)(=O)c3ccc(C)cc3)CCN(S(=O)(=O)c3ccc(C)cc3)CC2)cc1 | 170 to 171
CC(C)CC1C(=O)OC(Cc2ccccc2)C(=O)N(C)C(CC(C)C)C(=O)OC(C)CN(C)C(CC(C)C)C(=O)OC(Cc2ccccc2)C(=O)N(C)C(CC(C)C)C(=O)OC(C)CN1C (configuration not stated) | 130 to 132
COc1cc(OC)c(/C=C/C(c2ccc(OC)c(NC(=O)CN3CCN(C)CC3)c2)S(=O)(=O)C(/C=C/c2c(OC)cc(OC)cc2OC)c2ccc(OC)c(NC(=O)CN3CCN(C)CC3)c2)c(OC)c1 (configuration not stated) | 176 to 178
O=S(c1cc(C(F)(F)F)[nH]c1-c1ccc(Cl)cc1)C(F)(F)F (configuration not stated) | 198 to 200
CCCCCCCCCCCCCCCC(=O)C(O)C(O)(C(=O)c1cccc(NC(=O)C(CSC(C)=O)Cc2ccccc2)c1)C(O)C(=O)CCCCCCCCCCCCCCC (configuration not stated) | 65 to 67
CCCCCCCCCCCCCC(=O)NC1C(OCC(=O)O)OC(COC2OC(CO)C(OP(=O)(O)O)C(OC(=O)CNC(=O)CCCCCCCCCCC)C2NC(=O)CCCCCCCCCCCCC)C(O)C1OC(=O)CCCCCCCCCCCCC (configuration not stated) | 150 to 155
O=C(Oc1c(I)cc(I)c(Br)c1I)C(F)(F)C(F)(Br)C(F)(F)Br (configuration not stated) | 56 to 57
